According to PubChem BioAssay AID1996:
≈ marks a conversion by molar mass, not a printed value.

details: buffer; pH 7.4; 200.0 µM

solubility kinetic [µg/mL] | Compound
33.5 (≈ 125 µM) | COC(=O)c1ccc2nc(-c3cccc(N)c3)cn2c1
> 52.5 | COCCn1c(C)cc(C(=O)COC(=O)c2ccc([N+](=O)[O-])o2)c1C
> 44.3 | O=S(=O)(c1cccc(-c2nnco2)c1)N1CCOCC1
31.5 (≈ 119 µM) | O=C(Nc1ccc(OC(F)F)cc1)c1ccccn1
38.4 (≈ 119 µM) | CCC(C)NC(=O)C1c2ccccc2C(=O)N1Cc1ccccc1 (stereo not drawn)
40.7 (≈ 125 µM) | COc1ccc(NC(=O)CN(C)C(=O)CCc2ccccc2)cc1
> 51.2 | COc1cc(S(=O)(=O)N2CCCN(C)CC2)ccc1NC(C)=O
> 44.2 | COc1ccc(CC(=O)N2CCN=C2SC)cc1OC
> 65.3 | COCC(=O)Nc1ccc(N2CCOCC2)c(S(=O)(=O)Nc2ccc(OC)cc2)c1
> 59.5 | CCOC1(/N=C(\C)NS(=O)(=O)c2ccc(Cl)cc2)C(C)=CC(=O)C=C1C
> 48.7 | CC(C)C(NS(=O)(=O)c1ccccc1)C(=O)NC1CCCC1 (stereo not drawn)
> 51.5 | O=C(Nc1ccc(F)c([N+](=O)[O-])c1)C(=O)c1c(O)[nH]c2ccccc12
3.5 (≈ 9.27 µM) | Cc1ccc(C2(C)NC(=O)N(CC(=O)Nc3ccc4c(c3)CCC4)C2=O)cc1 (stereo not drawn)
> 45.8 | O=C(COc1cccnc1[N+](=O)[O-])NCc1ccc(F)cc1
47.5 (≈ 145 µM) | COc1ccc(C)c(NC(=O)C2CC(=O)NC3=C2C(=O)CCC3)c1 (stereo not drawn)
2.1 (≈ 4.7 µM) | COc1ccccc1CNC(=O)COC(=O)c1ccc(S(=O)(=O)N2CCCCC2)cc1
0.5 (≈ 1.88 µM) | Cc1ccccc1NC(=O)Nc1ccc2c(c1)CCC2
55.5 (≈ 148 µM) | COc1ccc(NC(=O)COC(=O)CCSc2ccccc2)cc1OC
39.9 (≈ 132 µM) | COc1cccc(OCC(=O)O/N=C(\N)c2ccncc2)c1
10.3 (≈ 34.3 µM) | Cc1cc(C(=O)Nc2ccccc2N2CCOCC2)c(C)o1
> 43.2 | COc1cccc(-c2cc(C(=O)N3CCOCC3)no2)c1
22.2 (≈ 61.9 µM) | CCOC(=O)c1c(C)[nH]c(NC(=O)Nc2ccc(NC(C)=O)cc2)c1C

solubility kinetic [µg/mL] | Compound
40.3 (≈ 85.7 µM) | CCN(CC)S(=O)(=O)c1cccc(NC(=O)COC(=O)c2cncc(Br)c2)c1
32.8 (≈ 121 µM) | Cc1cccc(NC(=O)c2ccc3c(c2)OCCO3)n1
> 63.8 | CSCCC(NC(=O)c1ccccc1)C(=O)N1CCN(C(=O)c2ccccc2)CC1 (stereo not drawn)
> 50.3 | O=C(O)c1ccccc1-c1ccccc1C(=O)Nc1ccc(F)cc1
40.8 (≈ 135 µM) | COc1cccc(C(=O)NCCCNC(=O)c2ccco2)c1
13.4 (≈ 33.6 µM) | COC(=O)c1ccc(CNC(=O)COC(=O)/C=C/c2ccc(O)c(OC)c2)cc1
6.7 (≈ 23.2 µM) | CCc1ccc(NC(=O)Cn2cc([N+](=O)[O-])nc2C)cc1
7.6 (≈ 19.5 µM) | COc1ccccc1CNC(=O)CNC(=O)c1sc2ccccc2c1Cl
> 48.6 | O=C(c1cc(COc2ccc(F)cc2F)on1)N1CCOCC1
1.9 (≈ 6.57 µM) | CC(=O)c1cccc(NC(=O)c2ccc3ccccc3c2)c1
> 48.6 | COc1ccc(NC(=O)CS(=O)c2ccccc2Cl)cc1 (stereo not drawn)
31.8 (≈ 92.6 µM) | Cc1ccc(NCC(O)Cn2cnc3c2c(=O)n(C)c(=O)n3C)cc1 (stereo not drawn)
29.7 (≈ 97.9 µM) | Cc1ccc(S(=O)(=O)CC(=O)NCc2ccccc2)cc1
7.4 (≈ 21.9 µM) | Cc1ccc(CNC(=O)[C@@H](NC(=O)Cc2ccccc2)C(C)C)cc1
18.9 (≈ 38.8 µM) | CCN(C(=O)COc1ccc(N(C)S(=O)(=O)c2ccc(NC(C)=O)cc2)cc1)C1CCCCC1
> 45.8 | COC(=O)c1ccc(OCC(=O)NC2CCCCCC2)cc1
2.9 (≈ 10.5 µM) | Cc1cc(NC(=O)COc2cccc([N+](=O)[O-])c2)no1
5.9 (≈ 13.8 µM) | COc1ccc(OC)c(-c2cc(C(=O)Nc3ccccc3C(N)=O)c3ccccc3n2)c1
> 49 | COc1cccc(C(=O)N(C)C(C)c2nc3ccccc3s2)c1 (stereo not drawn)
0.9 (≈ 2.77 µM) | COc1ccc(OC)c(C(=O)Cn2cnc3ccccc3c2=O)c1
< 0.7 | COc1ccc(NC(=O)c2ccc3ccccc3c2OC)cc1
3.2 (≈ 9.82 µM) | COc1ccc(Cl)cc1NC(=O)COC(=O)C1CCCCC1

solubility kinetic [µg/mL] | Compound
1.3 (≈ 4.77 µM) | COc1cccc(CNc2ccc([N+](=O)[O-])cc2C)c1
> 59.9 | O=C(NCc1ccco1)c1cc(S(=O)(=O)NC2CC2)ccc1Br
43.2 (≈ 149 µM) | Cc1ccc(S(=O)(=O)NCc2ccccn2)c(C)c1C
> 52.1 | COc1ccc(C(=O)O)cc1S(=O)(=O)N1CCCc2ccccc21
< 0.3 | Cc1ccc(NC(=O)Nc2ccc3c(c2)CCC3)cc1C
38 (≈ 113 µM) | COc1ccc(CCNC(=O)c2cccc3ccccc23)cc1OC
> 45.2 | O=C(COc1ccc2ccc(=O)oc2c1)NC1CCCCC1
3.5 (≈ 11.2 µM) | CC(=O)Nc1cccc(-c2csc(Nc3ncccn3)n2)c1
36.5 (≈ 108 µM) | COc1ccc(NC(=S)Nc2ccc(C)c(Cl)c2)cc1OC
> 38.3 | COc1cccc(C2(O)C(=O)Nc3ccccc32)c1 (stereo not drawn)
41.5 (≈ 138 µM) | COc1cc2c(cc1OC)C(c1ccc(Cl)cc1)=NCC2
< 0.4 | COc1ccc(Cl)cc1N1C(=O)CC(Sc2ccccc2N)C1=O (stereo not drawn)
> 48.6 | Cc1cc(Cl)ccc1NC(=O)CCN1C(=O)NC(C)(C)C1=O
7.9 (≈ 26 µM) | O=C(CSC(=S)N1CCOCC1)Nc1nccs1
36.7 (≈ 71.8 µM) | CN(Cc1ccccc1)C(=O)COC(=O)c1ccc(Br)c(S(=O)(=O)N2CCOCC2)c1
> 51.1 | CCC(=O)Nc1ccc2c(c1)nc(CCNC(=O)c1ccco1)n2C
> 42.6 | COc1ccc(OC)c(N2C(=O)c3cccnc3C2=O)c1
48.9 (≈ 149 µM) | CCN(C(=S)NC(=O)Cc1ccc(OC)cc1)c1ccccc1
> 40.5 | COc1ccccc1S(=O)(=O)N1CCNC(=O)C1
45.8 (≈ 132 µM) | Cc1ccnc(NC(=O)CCNS(=O)(=O)c2ccc(C)c(C)c2)c1
8.6 (≈ 31.8 µM) | Cc1cn(S(=O)(=O)c2ccc(Cl)cc2)c(C)n1
36.3 (≈ 115 µM) | COc1ccc(C(=O)NCCNc2ccccc2[N+](=O)[O-])cc1

The next lines start with the compound.

Compound | solubility kinetic [µg/mL]
CSc1ccc(CN(C)CC(=O)NCc2ccccc2)cc1 | 41 (≈ 130 µM)
OCC1CCCCN1C(=S)NCc1ccco1 (stereo not drawn) | 32.1 (≈ 126 µM)
O=C(CNC(=O)c1ccc(Cl)cc1Cl)NCC1CCCO1 (stereo not drawn) | > 49.7
O=C(NC(=S)Nc1cccc2ncccc12)c1ccco1 | 13.3 (≈ 44.7 µM)
O=C(/C=C/c1cccs1)NC1CC1 | > 29
CCOC(=O)C1=C(CC)Nc2ccccc2N=C1N | 14.3 (≈ 55.1 µM)
O=c1c2c3c(sc2nc2n1CCC2)CCCC3 | 33.8 (≈ 137 µM)
C#CC[N+]1(C)C2CCC1CC(O)C2.[Br-] (stereo not drawn) | 33.7
CCc1ccccc1NCc1cc(=O)oc2cc(C)ccc12 | 0.7 (≈ 2.39 µM)
NC(=O)c1ccc(/C=N/O)[n+](Cc2ccccc2)c1.[Br-] | 33.9
CC1CN(C(=O)c2cc3cc([N+](=O)[O-])ccc3oc2=O)CC(C)O1 (stereo not drawn) | 46.1 (≈ 139 µM)
Cc1cc([N+](=O)[O-])ccc1NC(=O)C(C)NC1CCCCC1 (stereo not drawn) | > 45.8
CCN1CCN(C(=O)/C=C/c2ccc(C(C)C)cc2)CC1 | > 43
Cc1csc2c(=O)sc(NC(=O)c3ccco3)nc12 | 4.5 (≈ 15.4 µM)
Cc1ccc(-c2nc3ncccc3o2)cc1NC(=O)c1ccc([N+](=O)[O-])o1 | 1.7 (≈ 4.67 µM)
CN(C)C(=O)Oc1ccc(NC(=O)N2CCOCC2)cc1 | 43.9 (≈ 150 µM)
O=C(CSc1ncn[nH]1)NCc1ccc2c(c1)OCO2 | > 43.8
O=C(COC(=O)c1ccccc1Cl)NC1CCCCCCC1 | 34.1 (≈ 105 µM)
N#CCCN(C(=O)CSc1nc2ccccc2c(=O)[nH]1)c1ccc(F)cc1 | > 57.4
O=C(NCc1ccc2c(c1)OCO2)c1ccccc1 | 38 (≈ 149 µM)
CCN(CC)S(=O)(=O)c1ccc(O)c(C(=O)OCC(=O)NC23CC4CC(CC(C4)C2)C3)c1 | 25.5 (≈ 54.9 µM)
O=[N+]([O-])C(C1CCS(=O)(=O)C1)C1CCS(=O)(=O)C1 (stereo not drawn) | 41.8 (≈ 141 µM)
CC(C)(C)NC(=S)NCC1CC1 | > 27.9
CC(C)(C)C(=O)NC(=S)Nc1ccc(C(F)(F)F)cc1 | 1.1 (≈ 3.61 µM)
CCCN(CC(=O)Nc1ccccc1C)C(=O)c1cnc(C)cn1 | > 49
Cc1ccc2c(c1)C(=O)CCCCC(=O)N2 | > 32.6

Compound | solubility kinetic [µg/mL]
O=C(NCc1ccccc1Cl)c1ccncc1 | > 37
S=c1[nH]c2ccc(Cc3ccc4[nH]c(=S)[nH]c4c3)cc2[nH]1 | 1.7 (≈ 5.44 µM)
N#CC(C(=S)Nc1ccccc1)c1nc2ccccc2[nH]1 (stereo not drawn) | 0.9 (≈ 3.08 µM)
CCOC(=O)c1c(C=O)c2sc(C)cc2n1C | 1.5 (≈ 5.97 µM)
CC(C)(C)C1CCCCC1NC(=O)c1ccncc1 (stereo not drawn) | 4.1 (≈ 15.7 µM)
Cc1ccccc1Nc1nc(N)nc(-c2oc3ccccc3c2C)n1 | 1 (≈ 3.02 µM)
O=C1OC(c2ccccc2)=N/C1=C\C=C\c1ccco1 | 2 (≈ 7.54 µM)
CCOC(=O)c1nc(Nc2ccccc2CC)c2ccccc2n1 | > 48.2
CN(C(=O)c1ccc2nc(N)sc2c1)c1ccccc1 | 40.8 (≈ 144 µM)
O=C(CN1C(=O)NC(CCc2ccccc2)C1=O)N1CCCCCC1 (stereo not drawn) | > 51.5
NC(=S)Nc1ccc(F)cc1F | > 28.2
CN(C)C(=O)c1c(NC(=O)c2ccccc2)sc2c1CCC2 | 42.9 (≈ 136 µM)
Cc1nc(Cl)c(C(=O)NCc2ccccc2)c(C)c1[N+](=O)[O-] | 10.8 (≈ 33.8 µM)
CC(C)(C)SCCNC(=O)/C=C/c1ccccc1 | 33.9 (≈ 129 µM)
CCCc1c(C)nc2c(OC)cccc2c1SCC(=O)O | 42.5 (≈ 139 µM)
CC1CCN(Cc2nc(-c3ccc(Cl)cc3)no2)CC1 | 2.2 (≈ 7.54 µM)
O=C(COC(=O)c1ccccc1O)NCCCc1ccccc1 | 5 (≈ 16 µM)
Cc1c(C)n(CCCN(C)C)c2ncnc(Nc3ccccc3)c12 | > 48.5
O=C1C[C@H](NC(=O)OCc2ccccc2)CO1 | > 35.3
Cl.O=C(O)CC1NCCc2ccccc21 (stereo not drawn) | > 34.2
Cc1c(Cl)cccc1NC(=O)NCc1cccnc1 | > 41.4
CN(C)c1ccc([N+](=O)[O-])cc1C(=O)NCC(c1ccco1)N(C)C (stereo not drawn) | 47.7 (≈ 138 µM)
NC(=O)C(=O)NCCCN1CCOCC1 | > 32.3
NC(=O)C1CCN(C(=O)CCC(=O)c2ccc(F)cc2)CC1 | > 46
Cc1cccc(N2C(S)=C(C#N)C(=O)NC2c2ccco2)c1 (stereo not drawn) | > 46.7
CC(=O)C1=C(O)CCCC1=NCc1nc2ccccc2[nH]1 | > 42.5
